Among the data in US8143257B2, “Substituted phenols as active agents inhibiting VEGF production” (PTC Therapeutics, Inc., priority 2004, dated 2012) are EC50 values, retold here.

Read-outs that look alike come from different tables or passages of the source.

The assay concerns hypoxia-inducible endogenous VEGF expression. The experiment in a line: Assay to evaluate effect on hypoxia-inducible endogenous VEGF expression (VEGF ELISA, HeLa cells). Format: cell-based. Conditions: read-out: ELISA EC50 (effective concentration required to lower the amount of VEGF translation by 50%). Here is the method: Assay to Evaluate Effect on Hypoxia-Inducible Endogenous VEGF Expression
The ability of the compounds of the invention to modulate hypoxia-inducible endogenous VEGF expression is analyzed as follows. VEGF protein levels are monitored by an ELISA assay (R&D Systems). Briefly, HeLa cells are cultured for 24-48 hours under hypoxic conditions (1% O2, 5% CO2, balanced with nitrogen) in the presence or absence of a compound of the invention. The conditioned media is then assayed by ELISA, and the concentration of VEGF is calculated from the standard ELISA curve of each assay.
A dose-response analysis is performed using the ELISA assay and conditions described above. A series of, e.g., seven different concentrations are analyzed. In parallel, a dose-response cytotoxicity assay is performed using Cell Titer Glo (Promega) under the same conditions as the ELISA to ensure that the inhibition of VEGF expression is not due to the cytotoxicity. Dose-response curves are plotted using percentage inhibition versus concentration of the compound, and EC50 and CC50 values are generated for each compound with the maximal inhibition set as 100% and the minimal inhibition as 0%.
The most preferred compounds of the invention are those with μM values of 3 or less.
For orientation: In an ELISA, binding on a coated surface is turned into a signal by an enzyme label.

[1] abbreviates: Homo sapiens, HeLa cells cultured 24-48 hours under hypoxic conditions (1% O2, 5% CO2), VEGF in conditioned media by ELISA.
[2] abbreviates: HeLa cells cultured 24-48 hours under hypoxic conditions (1% O2, 5% CO2), VEGF in conditioned media by ELISA.

Consider `O=C(Oc1ccc2ccccc2c1Br)N1CCC2(CC1)OCCO2` [1,4-Dioxa-8-aza-spiro[4.5]decane-8-carboxylic acid 1-bromo-naphthalen-2-yl ester], for which the EC50 under setting [1] is 1.51 µM. For the molecule `O=C(Oc1cc(Cl)c(Cl)cc1Cl)N1CCc2ccccc21` [2,3-Dihydro-indole-1-carboxylic acid 2,4,5-trichloro-phenyl ester], the EC50 under setting [1] is more than 30 µM.

Turning to `O=C(Oc1c(Cl)cc(Cl)cc1Cl)N1CCc2ccccc21` [2,3-Dihydro-indole-1-carboxylic acid 2,4,6-trichloro-phenyl ester], the EC50 under setting [1] was more than 30 µM. With `Cc1ccc(OC(=O)N2CCc3ccccc32)c(Br)c1` [2,3-Dihydro-indole-1-carboxylic acid 2-bromo-4-methyl-phenyl ester], where the note is “Homo sapiens, HeLa”, the EC50 was more than 30 µM. As for `O=C(Oc1ccccc1Br)N1CCc2ccccc21` [2,3-Dihydro-indole-1-carboxylic acid 2-bromo-phenyl ester], under setting [2], the EC50 was more than 30 µM. For the molecule `Cc1ccc2cc(OC(=O)N3CCc4ccccc43)ccc2n1` [2,3-Dihydro-indole-1-carboxylic acid 2-methyl-quinolin-6-yl ester], the EC50 under setting [1] is more than 30 µM. As to `O=C(Oc1cc2ccccc2cn1)N1CCc2ccccc21` [2,3-Dihydro-indole-1-carboxylic acid isoquinolin-3-yl ester], under setting [1], the EC50 was more than 30 µM. Turning to `CC(=O)c1c(OC(=O)N2CCc3cccnc32)ccc2ccccc12` [2,3-Dihydro-pyrrolo[2,3-b]pyridine-1-carboxylic acid 1-acetyl-naphthalen-2-yl ester], the EC50 under setting [1] was more than 30 µM. Take `O=C(Oc1ccccc1Br)N1CCc2cccnc21` [2,3-Dihydro-pyrrolo[2,3-b]pyridine-1-carboxylic acid 2-bromo-phenyl ester]: the EC50 under setting [1] is more than 30 µM. For `CC1CCCC(C)N1C(=O)Oc1c(Cl)cc(Cl)cc1Cl` (stereo not shown) [2,6-Dimethyl-piperidine-1-carboxylic acid 2,4,6-trichloro-phenyl ester], the EC50 under setting [1] is more than 30 µM.

Turning to `Cc1ccc(OC(=O)N2C(C)CCCC2C)c(Br)c1` (stereo not shown) [2,6-Dimethyl-piperidine-1-carboxylic acid 2-bromo-4-methyl-phenyl ester], the EC50 under setting [2] was more than 30 µM. Regarding `CC1CCCC(C)N1C(=O)Oc1ccccc1Br` (stereo not shown) [2,6-Dimethyl-piperidine-1-carboxylic acid 2-bromo-phenyl ester], the EC50 under setting [2] is more than 30 µM.

For `CC1CCCC(C)N1C(=O)Oc1cc2ccccc2cn1` (stereo not shown) [2,6-Dimethyl-piperidine-1-carboxylic acid isoquinolin-3-yl ester], the EC50 under setting [1] was more than 30 µM.

`CC(=O)c1c(OC(=O)N2CCCCC2C)ccc2ccccc12` (stereo not shown) [2-Methyl-piperidine-1-carboxylic acid 1-acetyl-naphthalen-2-yl ester]: under setting [1], the EC50 was more than 30 µM. On the same count and under the same terms, next, `CC1CCCCN1C(=O)Oc1ccc2ccccc2c1Br` (stereo not shown) [2-Methyl-piperidine-1-carboxylic acid 1-bromo-naphthalen-2-yl ester]: 0.687 µM. In the case of `CC1CCCCN1C(=O)Oc1cc(Cl)c(Cl)cc1Cl` (stereo not shown) [2-Methyl-piperidine-1-carboxylic acid 2,4,5-trichloro-phenyl ester], under setting [1], the EC50 was determined as 10.6 µM.

For the molecule `CC1CCCCN1C(=O)Oc1c(Cl)cc(Cl)cc1Cl` (stereo not shown) [2-Methyl-piperidine-1-carboxylic acid 2,4,6-trichloro-phenyl ester], under setting [1], the EC50 is more than 30 µM. On to `Cc1ccc(OC(=O)N2CCCCC2C)c(Br)c1` (stereo not shown) [2-Methyl-piperidine-1-carboxylic acid 2-bromo-4-methyl-phenyl ester], for which the EC50 under setting [2] is more than 30 µM.

Consider `CC1CCCCN1C(=O)Oc1ccccc1Br` (stereo not shown) [2-Methyl-piperidine-1-carboxylic acid 2-bromo-phenyl ester], for which the EC50 (Homo sapiens, HeLa) is more than 30 µM. Turning to `Cc1ccc2cc(OC(=O)N3CCCCC3C)ccc2n1` (stereo not shown) [2-Methyl-piperidine-1-carboxylic acid 2-methyl-quinolin-6-yl ester], the EC50 (Homo sapiens, HeLa) was more than 30 µM. In the case of `CC1CCCCN1C(=O)Oc1cc2ccccc2cn1` (stereo not shown) [2-Methyl-piperidine-1-carboxylic acid isoquinolin-3-yl ester], the EC50 under setting [1] is more than 30 µM. For `O=C(Oc1ccc2ccccc2c1Br)N1CCc2ccccc2C1` [3,4-Dihydro-1H-isoquinoline-2-carboxylic acid 1-bromo-naphthalen-2-yl ester], the EC50 under setting [1] amounted to 0.174 µM. As for `O=C(Oc1cc(Cl)c(Cl)cc1Cl)N1CCc2ccccc2C1` [3,4-Dihydro-1H-isoquinoline-2-carboxylic acid 2,4,5-trichloro-phenyl ester], the EC50 under setting [1] was 18.7 µM. Consider `O=C(Oc1c(Cl)cc(Cl)cc1Cl)N1CCc2ccccc2C1` [3,4-Dihydro-1H-isoquinoline-2-carboxylic acid 2,4,6-trichloro-phenyl ester], for which, under setting [1], the EC50 is more than 30 µM.

On to `Cc1ccc2cc(OC(=O)N3CCc4ccccc4C3)ccc2n1` [3,4-Dihydro-1H-isoquinoline-2-carboxylic acid 2-methyl-quinolin-6-yl ester], for which the EC50 under setting [1] was more than 30 µM. The same measure, in the same setting: next, `O=C(Oc1cc2ccccc2cn1)N1CCc2ccccc2C1` [3,4-Dihydro-1H-isoquinoline-2-carboxylic acid isoquinolin-3-yl ester]: more than 30 µM; `O=C(Oc1cc(Cl)c(Cl)cc1Cl)N1CCCc2ccccc21` [3,4-Dihydro-2H-quinoline-1-carboxylic acid 2,4,5-trichloro-phenyl ester]: 11.2 µM; `O=C(Oc1c(Cl)cc(Cl)cc1Cl)N1CCCc2ccccc21` [3,4-Dihydro-2H-quinoline-1-carboxylic acid 2,4,6-trichloro-phenyl ester]: more than 30 µM. With `Cc1ccc2cc(OC(=O)N3CCCc4ccccc43)ccc2n1` [3,4-Dihydro-2H-quinoline-1-carboxylic acid 2-methyl-quinolin-6-yl ester], the EC50 under setting [1] was more than 30 µM. On to `O=C(Oc1cc2ccccc2cn1)N1CCCc2ccccc21` [3,4-Dihydro-2H-quinoline-1-carboxylic acid isoquinolin-3-yl ester], for which the EC50 under setting [1] is more than 30 µM. Consider `CC(=O)c1c(OC(=O)N2CC(C)CC(C)C2)ccc2ccccc12` (stereo not shown) [3,5-Dimethyl-piperidine-1-carboxylic acid 1-acetyl-naphthalen-2-yl ester], for which the EC50 under setting [1] is 0.764 µM.

Take `CC1CC(C)CN(C(=O)Oc2ccc3ccccc3c2Br)C1` (stereo not shown) [3,5-Dimethyl-piperidine-1-carboxylic acid 1-bromo-naphthalen-2-yl ester]: the EC50 under setting [1] came out at 0.129 µM.

As to `CC1CC(C)CN(C(=O)Oc2ccc3ccccc3c2NS(C)(=O)=O)C1` (stereo not shown) [3,5-Dimethyl-piperidine-1-carboxylic acid 1-methanesulfonylamino-naphthalen-2-yl ester], under setting [1], the EC50 was more than 5 µM. As for `CC1CC(C)CN(C(=O)Oc2cc(Cl)c(Cl)cc2Cl)C1` (stereo not shown) [3,5-Dimethyl-piperidine-1-carboxylic acid 2,4,5-trichloro-phenyl ester], under setting [1], the EC50 worked out at 11.2 µM. Take `CC1CC(C)CN(C(=O)Oc2c(Cl)cc(Cl)cc2Cl)C1` (stereo not shown) [3,5-Dimethyl-piperidine-1-carboxylic acid 2,4,6-trichloro-phenyl ester]: the EC50 under setting [1] was more than 30 µM. Turning to `Cc1ccc(OC(=O)N2CC(C)CC(C)C2)c(Br)c1` (stereo not shown) [3,5-Dimethyl-piperidine-1-carboxylic acid 2-bromo-4-methyl-phenyl ester], the EC50 under setting [1] is more than 30 µM. Consider `CC1CC(C)CN(C(=O)Oc2ccccc2Br)C1` (stereo not shown) [3,5-Dimethyl-piperidine-1-carboxylic acid 2-bromo-phenyl ester], for which, under setting [2], the EC50 was more than 30 µM.
